In ChEMBL document CHEMBL1151872, “Antagonists of the human A(2A) receptor. Part 5: Highly bio-available pyrimidine-4-carboxamides” (Bioorg Med Chem Lett, 2009):
Values after ≈ are worked out from the molar mass of the structure shown.

Tests used:
Adenosine receptor A2b = target: T1, Adenosine receptor A2b (Homo sapiens, UniProt P29275); experiment: Binding affinity to adenosine A2B receptor
T1 sequence (P29275 whole entry): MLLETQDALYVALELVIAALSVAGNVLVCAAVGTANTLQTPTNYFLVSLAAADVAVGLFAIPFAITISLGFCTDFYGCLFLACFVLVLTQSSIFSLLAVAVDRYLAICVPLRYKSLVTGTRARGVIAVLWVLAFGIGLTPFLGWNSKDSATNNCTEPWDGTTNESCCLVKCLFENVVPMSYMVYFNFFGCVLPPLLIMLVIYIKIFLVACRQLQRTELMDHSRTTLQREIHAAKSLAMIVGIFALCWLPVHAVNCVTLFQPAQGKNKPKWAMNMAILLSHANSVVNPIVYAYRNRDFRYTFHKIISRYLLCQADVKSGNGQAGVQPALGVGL

Adenosine receptor A3 = target: T2, Adenosine receptor A3 (Homo sapiens, UniProt P0DMS8); experiment: Binding affinity to adenosine A3 receptor
T2 sequence (P0DMS8 whole entry): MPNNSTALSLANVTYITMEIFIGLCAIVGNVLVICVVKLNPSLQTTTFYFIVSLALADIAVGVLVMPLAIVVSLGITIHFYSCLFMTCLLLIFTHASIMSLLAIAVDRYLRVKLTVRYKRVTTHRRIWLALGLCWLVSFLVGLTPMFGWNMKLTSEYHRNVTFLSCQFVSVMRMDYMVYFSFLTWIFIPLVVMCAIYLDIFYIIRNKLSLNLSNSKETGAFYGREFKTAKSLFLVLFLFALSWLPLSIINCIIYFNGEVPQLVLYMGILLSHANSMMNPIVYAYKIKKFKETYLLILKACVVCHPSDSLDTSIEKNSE

Adenosine receptor A2a [1] = target: T3, Adenosine receptor A2a (Homo sapiens, UniProt P29274)
Description: Displacement of [3H]CGS21680 from human adenosine A2A receptor

Adenosine receptor A1 = target: T4, Adenosine receptor A1 (Homo sapiens, UniProt P30542)
T4 sequence (P30542 whole entry): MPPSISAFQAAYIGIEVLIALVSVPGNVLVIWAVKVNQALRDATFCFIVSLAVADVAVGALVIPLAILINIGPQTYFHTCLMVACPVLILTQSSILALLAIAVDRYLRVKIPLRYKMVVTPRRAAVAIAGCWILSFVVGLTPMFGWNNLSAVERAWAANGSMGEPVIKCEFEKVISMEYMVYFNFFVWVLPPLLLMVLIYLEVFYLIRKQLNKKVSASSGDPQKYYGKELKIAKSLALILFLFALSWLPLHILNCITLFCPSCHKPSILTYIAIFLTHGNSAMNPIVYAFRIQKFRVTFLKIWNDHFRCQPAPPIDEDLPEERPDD
Description: Displacement of [3H]CGS21680 from human adenosine A1 receptor

Adenosine receptor A2a [2] = target: T3, Adenosine receptor A2a; remark: listed apart in the source
Description: Agonist activity against human adenosine A2A receptor assessed as calcium mobilization by FLIPR assay

Mus musculus = experiment: Reversal of haloperidol-induced locomotor movement deficit in po dosed mouse assessed as minimum effective dose administered 15 mins before testing; conditions: read-out: MED
Homo sapiens [3] = species on record: Homo sapiens; experiment: Selectivity for human adenosine A2A receptor over human adenosine A2B receptor
Homo sapiens [4] = species on record: Homo sapiens; experiment: Selectivity for human adenosine A2A receptor over human adenosine A3 receptor
[5] = Aqueous solubility of the compound; type: physicochemical
[6] = Inhibition of Cytochrome P450; type: ADME
[7] = Half life in po dosed Sprague-Dawley rat plasma; type: ADME, organism-based
Brain = experiment: Drug uptake in Sprague-Dawley rat brain at 2 mg/kg, iv; type: ADME, organism-based; set-up: dose 2 mg/kg, route intravenous; conditions: in vivo
[8] = Half life in po dosed Sprague-Dawley rat brain; type: ADME, organism-based
[9] = Tmax in Sprague-Dawley rat plasma; type: ADME, organism-based

T3 sequence (P29274 whole entry): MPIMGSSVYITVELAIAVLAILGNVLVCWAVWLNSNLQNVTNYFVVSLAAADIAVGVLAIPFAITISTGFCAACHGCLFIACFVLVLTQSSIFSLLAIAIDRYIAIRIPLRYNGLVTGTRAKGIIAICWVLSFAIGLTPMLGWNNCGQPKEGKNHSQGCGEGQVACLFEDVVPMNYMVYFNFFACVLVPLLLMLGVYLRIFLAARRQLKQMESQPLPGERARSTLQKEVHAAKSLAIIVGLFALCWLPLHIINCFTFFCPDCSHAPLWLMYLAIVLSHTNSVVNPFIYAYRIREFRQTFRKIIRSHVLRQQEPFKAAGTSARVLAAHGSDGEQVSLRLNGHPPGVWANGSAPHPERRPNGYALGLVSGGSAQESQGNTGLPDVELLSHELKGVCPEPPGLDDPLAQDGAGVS

Ki (Adenosine receptor A2b) [µM]	Ki (Adenosine receptor A3) [µM]	Ki (Adenosine receptor A2a [1]) [µM]	Ki (Adenosine receptor A1) [µM]	EC50 (Adenosine receptor A2a [2]) [µM]	SMILES	minimal effective dose (Mus musculus) [mg/kg]	other results
0.121	1.1	0.0061	0.047	≥ 10	COc1cccc(CNC(=O)c2cc(-c3ccco3)nc(N)n2)c1	–	–
–	–	0.0175	0.08	–	Nc1nc(C(=O)NCc2ccc(Cl)cc2)cc(-c2ccco2)n1	–	–
–	–	0.17	0.77	–	COc1ccccc1C(=O)Nc1nc(N)nc(-c2ccco2)c1[N+](=O)[O-]	–	–
0.858	0.857	0.0076	0.058	≥ 10	Nc1nc(C(=O)NCc2ccccc2)cc(-c2ccco2)n1	–	–
0.156	0.402	0.0035	0.0345	≥ 10	COc1ccccc1CNC(=O)c1cc(-c2ccco2)nc(N)n1	20	–
–	–	–	–	–	CCn1c(=O)c2c(nc(/C=C/c3ccc(OC)c(OC)c3)n2C)n(CC)c1=O [ISTRADEFYLLINE]	0.3	–
–	–	0.023	0.311	–	Nc1nc(NC(=O)c2ccccc2F)c([N+](=O)[O-])c(-c2ccco2)n1	–	–
–	–	0.388	1.34	–	Nc1nc(C(=O)NCc2ccncc2)cc(-c2ccco2)n1	–	–
–	–	0.0093	0.26	–	Nc1nc(C(=O)NCc2cccc(CO)n2)cc(-c2ccco2)n1	30	–
0.754	1.39	–	–	–	Nc1nc(C(=O)NCc2ccccn2)cc(-c2ccco2)n1	3	–
–	–	0.02	0.14	–	Nc1nc(C(=O)NCc2ccc(F)cc2)cc(-c2ccco2)n1	–	–
–	–	0.22	3.54	–	Nc1nc(NC(=O)c2cccnc2)c([N+](=O)[O-])c(-c2ccco2)n1	–	–
0.924	1.06	0.0048	0.039	≥ 10	Nc1nc(C(=O)NCc2cccc(F)c2)cc(-c2ccco2)n1	–	–
0.184	0.507	0.0037	0.0122	≥ 10	Nc1nc(C(=O)NCc2cccc(Cl)c2)cc(-c2ccco2)n1	–	–
–	–	0.308	2.06	–	Nc1nc(NC(=O)c2ccccc2)c([N+](=O)[O-])c(-c2ccco2)n1	–	–
0.444	1.48	0.007	0.131	≥ 10	Nc1cccc(CNC(=O)c2cc(-c3ccco3)nc(N)n2)n1	1	–
–	–	0.153	2	–	Nc1nc(NC(=O)c2ccncc2)c([N+](=O)[O-])c(-c2ccco2)n1	–	–
–	–	0.079	0.157	–	COc1ccc(CNC(=O)c2cc(-c3ccco3)nc(N)n2)cc1	–	–
0.402	1.53	0.0026	0.038	≥ 10	Cc1cccc(CNC(=O)c2cc(-c3ccco3)nc(N)n2)c1	3	Ratio Ki (Homo sapiens [3]): < 1000; Ratio Ki (Homo sapiens [4]): < 1000
1.24	1.85	0.0095	0.102	≥ 10	Cc1ccc(CNC(=O)c2cc(-c3ccco3)nc(N)n2)cc1	–	–
0.067	0.335	0.0035	0.054	≥ 10	Nc1nc(C(=O)NCc2ccccc2F)cc(-c2ccco2)n1	30	–
0.137	0.414	0.0026	0.072	≥ 10	Nc1nc(C(=O)NCc2ccccc2Cl)cc(-c2ccco2)n1	30	–

SMILES	Ki (Adenosine receptor A2b) [µM]	Ki (Adenosine receptor A3) [µM]	Ki (Adenosine receptor A2a [1]) [µM]	Ki (Adenosine receptor A1) [µM]	EC50 (Adenosine receptor A2a [2]) [µM]	minimal effective dose (Mus musculus) [mg/kg]	other results
Nc1nc(C(=O)NCc2cccnc2)cc(-c2ccco2)n1	5.87	6.44	0.0094	0.124	≥ 10	–	Ratio Ki (Homo sapiens [3]): < 1000; Ratio Ki (Homo sapiens [4]): < 1000
COCc1cccc(CNC(=O)c2cc(-c3ccco3)nc(N)n2)n1	0.46	1.74	0.0017	0.042	≥ 10	0.1	Ratio Ki (Homo sapiens [3]): < 1000; Ratio Ki (Homo sapiens [4]): < 1000; solubility [5]: 450 µM (≈ 153 µg/mL); Activity [6]: Not Active; half-life [7]: 1 h; Drug uptake (Brain): 85%; half-life [8]: 1 h; Tmax [9]: 0.25 h
Nc1nc(C(=O)NCc2ccco2)cc(-c2ccco2)n1	–	–	0.014	0.214	–	–	–
COc1ccccc1CC(=O)Nc1nc(N)nc(-c2ccco2)c1[N+](=O)[O-]	–	–	0.01	0.884	–	–	–
Cc1ccccc1CNC(=O)c1cc(-c2ccco2)nc(N)n1	0.917	0.586	0.0022	0.073	≥ 10	30	–
Nc1nc(NC(=O)c2ccccc2OC(F)(F)F)c([N+](=O)[O-])c(-c2ccco2)n1	–	–	0.016	0.298	–	–	–
